This is an account of results in US20250161310A1, “PHARMACEUTICAL COMBINATIONS FOR USE IN THE TREATMENT OF NEOPLASTIC DISEASES” (priority 2022, published 2025).

Structures are written as SMILES. Where two headings read alike, the source gives them in different places. Marks after values point to notes of the source that are not given here.

The target in one data set is T1, tumor-derived TTK (Homo sapiens, UniProt P33981).
T1 construct: from tissue; host or cells: MDA-MB-231 xenograft tumours grown in mice
T1 sequence (P33981 1-857): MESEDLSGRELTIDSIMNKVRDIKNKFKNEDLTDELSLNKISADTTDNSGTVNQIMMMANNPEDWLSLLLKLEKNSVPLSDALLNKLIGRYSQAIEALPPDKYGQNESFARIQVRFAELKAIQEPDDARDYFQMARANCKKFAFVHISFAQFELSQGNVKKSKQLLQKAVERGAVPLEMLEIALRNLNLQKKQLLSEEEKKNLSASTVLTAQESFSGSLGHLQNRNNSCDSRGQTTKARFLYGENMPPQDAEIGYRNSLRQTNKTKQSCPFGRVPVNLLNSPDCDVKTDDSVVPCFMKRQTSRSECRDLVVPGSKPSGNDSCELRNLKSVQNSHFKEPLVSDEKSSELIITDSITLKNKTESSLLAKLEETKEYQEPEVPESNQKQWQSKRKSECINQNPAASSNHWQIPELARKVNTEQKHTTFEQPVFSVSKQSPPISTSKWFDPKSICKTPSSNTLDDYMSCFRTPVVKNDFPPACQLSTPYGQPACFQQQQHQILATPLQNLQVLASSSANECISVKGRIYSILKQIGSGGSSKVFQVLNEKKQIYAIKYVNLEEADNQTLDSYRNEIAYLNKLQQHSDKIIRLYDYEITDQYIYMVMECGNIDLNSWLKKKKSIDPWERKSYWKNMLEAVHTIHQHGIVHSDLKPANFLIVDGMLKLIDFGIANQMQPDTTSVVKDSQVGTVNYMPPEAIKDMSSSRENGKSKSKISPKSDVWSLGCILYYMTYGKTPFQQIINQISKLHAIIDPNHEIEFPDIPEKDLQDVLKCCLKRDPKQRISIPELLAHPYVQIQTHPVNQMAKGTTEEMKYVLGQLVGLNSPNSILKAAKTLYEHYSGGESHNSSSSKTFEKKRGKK
Briefly: tumor TTK target occupancy in MDA-MB-231 xenograft-bearing mice. Type of data set: in vivo. The note with it: MDA-MB-231 tumors. Here is the method: Prolonged TTK target occupancy was also measured in tumors derived from MDA-MB-231 xenograft-bearing mice treated with intermittent i.v. dosing regimen of compound of formula (I). […]

For another data set, the system named is SKOV-3 s.c. xenografts. The class given is in vivo. The note with it: day 23. Here is the method: The anti-tumor activity of the compound of formula (I) in combination with carboplatin was evaluated in an ovarian cancer model, using human SKOV-3 cells grown as a solid tumor xenograft subcutaneously (s.c.) in nude mice.
The maximum tolerated dose (MTD) of the compound of formula (I) in combination with an optimal dose of carboplatin was defined in non-tumor bearing BALB/c nude mice in the experiments described above. […] Thus, in this study, using a human ovarian cell line derived xenograft (CDX) model, that schedule was applied and compared directly with the same order of administration with a 1 hr or 24 hr gap between compounds. In addition, the twice-weekly schedule was compared with a weekly schedule of 7 mg/kg BAL0891 (a weekly dose well below the MTD for compound of formula (I) monotherapy) using a 4 hr gap. Treatments continued until day 24 and tumor volumes and body weight were monitored until day 51.

Data set [1] has as its system 18 different triple negative breast cancer cell lines. The data set can be described thus: 5-day anti-proliferative screen of 18 triple negative breast cancer cell lines. The class given is cell-based. The note with it: 120 h; 5-day screen, 18 TNBC cell lines; read-out: median GI50. The text has this:
(§1) In cellular systems, the compound of formula (I) has high potency against sensitive cells.

Data set [2] deals with BR1282 TNBC PDX tumor. The data set can be described thus: second PDX combination study (compound of formula (I) first), BR1282. Here is the method:
In a second PDX study, the same model was used as for the first study (TNBC BR1282 PDX model), but this time compound of formula (I) (8 mg/kg, i.v., qw, 5 mL/kg) was administered first and carboplatin (60 mg/kg, i.v., qw, 6 mL/kg) second using a 4 h gap between both administrations and compound of formula (I) was provided qw. Consequently, the mice received both compounds on the same day (4 h gap).
(§2) Carboplatin was purchased from Qilu Pharmaceutical Co. Ltd. as a solution (10 mg/mL in 5% (w/v) glucose in pure water). The compound of formula (I) was supplied as a powder by Basilea Pharmaceutica International Ltd. and was prepared freshly as a solution in Ethanol:PEG400:Citric acid 20 mM, at a ratio of 1:1:8 and at a final pH of 3.7, for immediate administration.
(§3) Body weights and tumor volumes were determined at least twice per week, the latter by measuring two dimensions with calipers and applying the formula “V=(L×W^2)/2”, where V is the tumor volume, and L and W are the tumor length and width re-spectively. […] Mice were also culled if the BWL was determined to be >15% for 3 consecutive days. Any mice with >10% BWL, automatically were dosed on one of the following days, as soon as the BWL returned to <10%. All animal protocols were reviewed and approved by the relevant local committees in China, where the studies were performed.
(§4) The statistical significance of efficacy were determined in two different ways using a) the endpoint on day 10 or day 14 depending on the study when it was necessary to cull the vehicle group because of tumor volume exceeding 1500 mm^3, and b) at the endpoint of day 31 in the first study when exponential curve fits were applied to estimate the rates of tumor growth in the different groups. The degree of an effect was quantified by the delta (A) treated/control ratio (ΔT/C) and the statistical significance of the effect was determined by a one-way analysis of variance (1W-ANOVA) with Holms-Sidak applied post-hoc for multiple determinations, where a p-value of <0.05 was considered statistically significant. In addition, an assessment of the combination effect was made based upon the Clarkes Combination Index (CCI), where the CCI=ΔT/CAB−(ΔT/CA*ΔT/CB) in which A and B are two different compounds and AB the combination thereof, where CCI<−0.1 indicates synergy (or a positive interaction), +0.1 (antagonism, or a negative interaction) and between −0.1 and +0.1 indicates additivity (no interaction); see O'Reilly et al. Anti Cancer Drugs 2011; 22:58-78.

The next data set deals with other kinases. Briefly: kinase specificity, other kinases versus TTK. The class given is biochemical.
Data set [3] concerns BR1282 TNBC PDX tumor. The data set can be described thus: first PDX combination study (carboplatin first), BR1282. Here is the method: In a first PDX study, female BALB/c nude mice (CrownBio) of at least 20 g body weight were subcutaneously (s.c.) inoculated in the right flank with tumor fragments (3*3*3 mm) from stock mice bearing the patient-derived xenograft (PDX) triple negative breast cancer (TNBC) tumor, BR1282. Randomization into 5 different treatment groups (8 mice per group) was made when the mean tumor size was 150-200 mm^3. Mice were dosed intravenously (i.v.) twice weekly (2qw) with the compound of formula (I) (7 mg/kg, i.v., 5 mL/kg) or once weekly (qw) carboplatin (60 mg/kg, i.v., 10 mL/kg) or the combination of these doses, in which the compound of formula (I) was administered after carboplatin using either a 4 h or a 24 h gap, when both compounds were administered on the same day/consecutive days. The fifth group received both vehicles using the time interval of 4 h and all groups were dosed twice via the tail vein. Dosing was delayed by 1 day in any mice showing transient body weight loss of >10% at any time point.
as §2, §3, §4

The nature of data set [4]: maximum tolerated dose in combination with carboplatin in non-tumor-bearing mice. The class given is in vivo. The text has this:
Carboplatin is standard of care treatment in a number of tumor indications. To determine the combination effect of the compound of formula (I) and carboplatin, the maximum tolerated dose (MTD) of the compound of formula (I) in combination with an optimal dose of carboplatin was first defined in non-tumor-bearing BALB/c nude mice. […]

The target of data set [5] is T2, TTK kinase domain (amino acids 519-808) (Homo sapiens, UniProt P33981).
T2 construct: recombinant expressed TTK kinase domain (amino acids 519-808)
T2 sequence (P33981 519-808): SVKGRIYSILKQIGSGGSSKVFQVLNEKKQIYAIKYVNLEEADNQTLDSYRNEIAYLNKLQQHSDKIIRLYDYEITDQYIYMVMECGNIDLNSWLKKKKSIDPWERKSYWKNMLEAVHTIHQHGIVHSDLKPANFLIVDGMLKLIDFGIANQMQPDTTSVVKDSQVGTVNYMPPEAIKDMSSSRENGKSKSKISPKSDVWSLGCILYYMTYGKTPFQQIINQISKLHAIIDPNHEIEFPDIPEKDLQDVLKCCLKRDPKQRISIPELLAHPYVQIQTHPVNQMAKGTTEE
Briefly: target residence time assay (Biacore T200 surface plasmon resonance), TTK. Type of data set: binding. The note with it: SPR, 22° C. Here is the method: (§5) The affinity, i.e. the equilibrium dissociation constant (KD) (referred to as residence times), of the compound of formula (I) against TTK and PLK1 were determined using a Biacore T200™ surface plasmon resonance instrument using recombinant expressed TTK kinase domain (amino acids 519-808) or biotinylated PLK1. The immobilization of TTK was performed as described in Maia et al. Annals of Oncology, 2015; 26:2180-2192. The immobilization of biotinylated PLK1 was performed as described in Willemsen-Seegers et al. Journal of Molecular Biology, 2017; 429:574-586. The subsequent single cycle kinetic assays were performed at 22° C. using a compound concentration gradient of […], 10, 31.6 and 100 nM for TTK and 10, 31.6, 100, 316 and 1000 nM for PLK1, a contact time of 100 s and a flow rate of […]. The dissociation period was 1200-1800 s and a correction for an unstable surface using a blank run with buffer was performed.
In general terms: In SPR one partner is held on a chip, and binding of the other changes the refractive index at the surface.

Another data set addresses T3, biotinylated PLK1 (Homo sapiens, UniProt P53350).
T3 construct: biotin (biotinylated)
The data set can be described thus: target residence time assay (Biacore T200 surface plasmon resonance), PLK1. Type of data set: binding. Particulars: SPR, 22° C. Here is the method: as §5

Data set [6] concerns patient-derived tumor xenografts, including TNBC and hepatocellular cancer (HCC) models. The data set can be described thus: monotherapy activity against patient-derived tumor xenografts in mice. Type of data set: in vivo. The note with it: data not shown.
Text: as §1
(In xenograft studies the graft and the host belong to different species.)

T3 sequence (P53350 whole entry): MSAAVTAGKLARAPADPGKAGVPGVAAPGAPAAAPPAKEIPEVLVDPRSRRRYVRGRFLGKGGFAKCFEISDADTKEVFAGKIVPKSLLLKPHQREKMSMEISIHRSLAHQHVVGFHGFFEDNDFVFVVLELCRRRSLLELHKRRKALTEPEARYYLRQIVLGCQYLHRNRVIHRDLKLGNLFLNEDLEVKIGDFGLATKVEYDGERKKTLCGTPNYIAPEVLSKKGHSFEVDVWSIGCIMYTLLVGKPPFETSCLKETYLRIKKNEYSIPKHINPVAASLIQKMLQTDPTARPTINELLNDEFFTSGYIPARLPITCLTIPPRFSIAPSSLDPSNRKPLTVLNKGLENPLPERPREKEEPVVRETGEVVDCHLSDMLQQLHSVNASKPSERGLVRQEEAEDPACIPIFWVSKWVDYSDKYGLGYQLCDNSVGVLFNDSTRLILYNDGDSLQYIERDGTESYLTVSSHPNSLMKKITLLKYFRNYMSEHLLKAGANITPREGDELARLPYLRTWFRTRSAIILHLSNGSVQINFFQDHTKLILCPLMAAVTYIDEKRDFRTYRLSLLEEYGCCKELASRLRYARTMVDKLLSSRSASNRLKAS

Regarding `COc1cc(N2CCNCC2)ccc1Nc1ncc2c(n1)-n1ccc(C(=O)Nc3c(C)cccc3C)c1CC2` [Compound of formula (I)], the “time TTK completely occupied after last dose” value at tumor-derived TTK (i.v. twice-weekly, last MTD dose) is given as “at least 72 h”. Besides, on tumor-derived TTK (i.v. weekly MTD dosing, repeat experiment), the “time tumor-derived TTK fully drug-occupied after last administration” value was “up to 6 days”. In the data set with SKOV-3 s.c. xenografts (monotherapy Formula (I) 7 mg/kg iv qw), the ΔT/C is recorded as 0.69. Besides, in the data set on SKOV-3 s.c. xenografts (monotherapy: Formula (I) 7 mg/kg iv 2qw, Carboplatin 60 mg/kg iv qw), the ΔT/C stood at 0.64. The concentration for 50% growth inhibition (GI50) – broadly, the concentration that inhibits growth by half – in data set [1] came out at 35 nM. Further, in the data set with BR1282 TNBC PDX tumor [2] (based on mean rate of growth (k), formula (I) 8 mg/kg qw first, carboplatin 60 mg/kg qw 4 h later), the “Efficacy: ΔT/C Day 0 up to Day 17” value turned out to be 0.70. Moreover, in the data set with BR1282 TNBC PDX tumor [2] (comparator Vehicle), the “k means, Mean difference, Vehicle vs. treatment” value is 0.045 and the “Δ tumor volume on day 14, Mean difference, Vehicle vs. treatment” value stood at 422.3. In addition, the “Efficacy: ΔT/C Day 14” value in the data set on BR1282 TNBC PDX tumor [2] (mean change in tumor volume, formula (I) 8 mg/kg qw i.v. first, carboplatin 60 mg/kg qw i.v. 4 h later) amounted to 0.60. Also, in the data set on BR1282 TNBC PDX tumor [2] (mouse, in vivo), the “Tolerability (Day 14) ΔBW (%)” value turned out to be 2.7 ± 2.1% and the “Tolerability (Day 14) ΔT/C” value was 1.00. The “other kinase IC50s higher than those for TTK” value in the data set on other kinases is reported as “at least 10 fold”. Further, the “Efficacy: ΔT/C Day 0 up to Day 31” value in the data set with BR1282 TNBC PDX tumor [3] (based on mean rate of growth (k), formula (I) 7 mg/kg 2qw i.v., carboplatin 60 mg/kg qw i.v., carboplatin first) was 0.41***. Also, the “Mean difference of mean rate of growth (k), Vehicle vs. treatment” value in the data set on BR1282 TNBC PDX tumor [3] (comparator Vehicle, day 0 to latest day 31) is 0.084. Also, the “Efficacy: ΔT/C Day 10” value with BR1282 TNBC PDX tumor [3] (mean change in tumor volume, formula (I) 7 mg/kg 2qw i.v., carboplatin 60 mg/kg qw i.v., carboplatin first) is 0.58. In the data set with BR1282 TNBC PDX tumor [3] (mouse, in vivo), the “Tolerability (Day 10) ΔBW (%)” value is reported as 0.5 ± 1.6% and the “Tolerability (Day 10) ΔI/C” value is recorded as 0.96. The “highest tolerated doses of compound of formula (I) in combination with carboplatin” value in data set [4] (2qw i.v., 4 or 24 hours after carboplatin 60 mg/kg qw i.v.) fell in the range of 6 to 7 mg/kg. Further, in [4] (6-8 mg/kg, 24 h gap to carboplatin or 2qw schedule), the “tolerability when compound of formula (I) applied first” value is reported as “not tolerated”. The “tolerated dose of compound of formula (I) when applied before carboplatin” value in [4] (weekly, carboplatin 60 mg/kg i.v. qw 4 h later) is recorded as 8 mg/kg. Also, the “target-residency on TTK” value in data set [5] is on record as more than 12 h. Moreover, the “target-residency on PLK1” value on biotinylated PLK1 is reported as “a few minutes”. In data set [6], the “activity against patient-derived tumor xenografts” value is on record as “significant activity”.
